Results from US20110294992A1, “METAL RESPONSIVE MRI-AGENTS” (The Regents of the University of California, priority 2010, published 2011).
Marks after values point to notes of the source that are not given here.

What was measured:
[1] = Metal ion selectivity of relaxivity response (competing metal ions alone or with added copper); format: physicochemical; settings: relaxivity at 60 MHz, 20 mM HEPES, pH 7, 37° C.
Method: FIG. 6. Relaxivity responses of CG2 to various metal ions. White bars represent the addition of an excess of the appropriate metal ion (10 mM for Na^+, 2 mM for K^+, Mg^2+, and Ca^2+, and 0.2 mM for Fe^2+, Fe^3+, Cu^2+) to a 0.2 mM solution of CG2. Response to Zn^2+ was measured both at 0.2 mM Zn^2+ (Zn^2+1×) and 2 mM Zn^2+ (Zn^2+10×). Black bars represent the subsequent addition of 0.2 mM Cu^+ to the CG2 solution. Relaxivity measurements were acquired at 37° C. in 20 mM HEPES buffer, pH 7, at a proton Larmor frequency of 60 MHz.
The potential ability of this new family of CG sensors to sense bioavailable copper pools in either or both its predominant oxidation states represents a significant advance over the initial CG1 compound.

[2] = Nuclear magnetic relaxation dispersion (NMRD) profiles, Solomon-Bloembergen-Morgan fit; format: physicochemical; settings: copper free
Method: FIG. 9. ^1H Nuclear magnetic relaxation dispersion profiles of CG3 and CG3+Cu^+ acquired at 25° C. The solid lines represent the best fit profiles.
As a secondary, independent set of experiments to further probe the mechanisms of copper ion sensing by the CG contrast agents, we also performed nuclear magnetic relaxation dispersion (NMRD) measurements of these sensors in the absence and in the presence of copper ions using a field cycling relaxometer (FIG. 9). The profiles obtained were analyzed following Solomon-Bloembergen-Morgan theory^36-38 for the inner-sphere relaxivity and the Freed model^115 for the outer-sphere relaxivity, fixing the diffusion coefficient (D) at […], the distance between Gd^3+ and the inner sphere water protons (r) at 3.1 Å, and the inner sphere exchange lifetime (τM) at 160 ns, the reported value for the parent complex Gd^3+-DO3A. Profiles were obtained for all compounds in the copper-free state. Profiles in the presence of Cu^n+ were obtained for CG2-4 (Cu^+) and CG6 (Cu^2+).
In fact, the measured outer-sphere relaxivities were so low that, in order to obtain a reasonable fit, the distance of closest approach of outer-sphere water protons (a) was allowed to vary. The distances obtained for the CG complexes (4.2-4.8 Å) were markedly longer than what is observed for typical Gd^3+ contrast agents with greater water access (3.8-4 Å). These values correlate with the copper-free relaxivities of CG2-6; longer a values give lower relaxivities and shorter a values give higher relaxivities. For Cu^+-sensing agents CG2-4, the estimated change in q of 2 as determined by DIS measurements was also observed in the fitted NMRD data. In fact, any attempt to fit the observed NMRD profiles with q=1 led to very poor agreement between experimental and calculated values. The change in q of 1 for CG6 upon addition of Cu^2+ as determined by NMRD is consistent with the lower turn-on response observed with this complex compared to CG2-4. The reduced q modulation for CG6 relative to CG2-4 could indicate that the carboxylic acid moiety used for Cu^2+ binding also interacts with the Gd^3+ center in the Cu^2+-bound state. The fitted rotational correlation times (τR) for copper-bound CG complexes all fall within the range expected for Gd^3+ complexes with molecular weights of 700-800 D. τR values for copper-free CG2-6 were fixed to values close to their copper-bound analogues as fits of NMRD data for q=0 complexes are not sensitive to small changes in τR. The values of Δ^2 (average quadratic transient zero field splitting), τv (electronic correlation time), and τs0 (electronic relaxation time at zero field), which govern the electronic relaxation time, are relatively similar to each other. These NMRD values are closer to those of Gd^3+-DTPA than Gd^3+-DOTA, reflecting the asymmetry of CG2-6.^64

[3] = T1-weighted phantom magnetic resonance imaging at 1.5 T; settings: 100 μM sensor with Cu^+ at 0, 10, 25, 50, 75, and 100 μM
Method: FIG. 10. A) T1-weighted phantom images of 100 μM CG2-6 in 20 mM HEPES pH 7 with and without 1 equiv Cu^n+. B) Phantom images of 100 μM CG2-6 with 0, 10, 25, 50, 75, and 100 μM [Cu(NCCH3)4]PF6. Images were acquired at 25° C. at 1.5 T (˜64 MHz proton Larmor frequency).
With spectroscopic data showing the turn-on relaxivity responses, binding properties, metal ion selectivities, and copper-induced changes in q values for this new series of CG contrast agents in hand, we next sought to test the ability of these sensors to detect changes in aqueous Cu^+ and/or Cu^2+ levels using MRI. […] In this context, chelatable copper pools have been identified in the mitochondrial matrix^22 and in the Golgi apparatus.^23 Moreover, the cerebrospinal fluid (CSF) contains micromolar levels of copper ions, most of which is not bound to ceruloplasmin due to the low concentrations of this protein in the CSF,^24,25 which may result in facile exchange between different copper binding ligands.^26

[4] = Kinetic stability to metal ion exchange monitored by LC/MS; format: physicochemical; settings: 1 equiv of Cu^2+
[5] = Relaxivity response to 1 equiv Cu+ in the presence of biologically relevant anions; format: physicochemical; settings: for increase in r1 in response to Cu^+ / turn-on response to Cu^+: pH 7
Method: FIG. 7. Relaxivity responses of CG2 to 1 equiv Cu^+ in the presence of biologically relevant anions. White bars represent CG2 relaxivities without Cu^+ in the presence of various anions. Black bars represent CG2 relaxivities with Cu^+ in the presence of different anions. Percentages in the black bars are the % increases r1. Relaxivity measurements with HEPES, citrate (0.13 mM), lactate (2.3 mM), and HCO3^− (10 mM, 25 mM), were acquired at 37° C. in 20 mM HEPES buffer, pH 7, at a proton Larmor frequency of 60 MHz. Relaxivity measurements with PBS were acquired under similar conditions using phosphate buffered saline, pH 7.4.
We also tested the copper responses of CG2-6 in the presence of physiologically relevant concentrations of common biological anions (FIG. 7). […] Carboxylate-type anions, however, can affect relaxivity responses of Cu^+-bound CG2. Addition of citrate (0.13 mM) and lactate (2.3 mM) to CG2 results in turn-on responses to Cu^+ of 220% and 71% respectively. Carbonate concentrations also affect the response of CG2; the effect of carbonate was tested at 10 mM NaHCO3 (intracellular)^104 and 25 mM NaHCO3 (extracellular)^108 and gave increases in r1 in response to Cu^+ of 190% and 140% respectively. Although the relaxivity increases observed in the presence of anions are still well within a range detectable by MRI,^109 current work is geared toward developing CG-sensors with more carboxylate functionalities incorporated into the ligand framework to minimize anion sensitivity.^55,110

τs0 (electronic relaxation time at zero field) [2]: 75.6 ps
r1p 20 MHz 25° C. ([2]; 0.5 mM, 20 mM HEPES pH 7): 1.6 mM⁻¹ s⁻¹
a (distance of closest approach of outer-sphere water protons) ([2]; best-fit value): 4.7 ± 0.11 Å
Δ^2 (average quadratic transient zero field splitting) ([2]; best-fit value): 5.8 ± 1.1 10^19 s^−2
τv (electronic correlation time) ([2]; best-fit value): 19 ± 2.4 ps
q ([2]; fixed in the fitting procedure): 0^c
τR (rotational correlation time) ([2]; not experimentally determined, assumed equal to corresponding q ≠ 0 complex (CG5: average of the other complexes)): 110^d ps
metal ion exchange (kinetic stability) ([4]; 37° C., after 4 hours): No metal ion exchange was observed
metal ion exchange (kinetic stability) ([4]; room temperature, after 7 days): No metal ion exchange was observed
SMILES: CCSCCN(CCSCC)Cc1cccc(CN2CCN(CC(=O)[O-])CCN(CC(=O)[O-])CCN(CC(=O)[O-])CC2)n1.[Gd+3] [CG2]
redox specificity of relaxivity response (Cu^+ vs Cu^2+) [1]: give turn-on relaxivity increases with Cu^+ but do not respond to Cu^2+
visualization of copper level differences in phantom images [3]: can readily visualize differences in copper levels in a biologically relevant μM range
increase in r1 in response to Cu^+ ([5]; 10 mM NaHCO3 (intracellular) in 20 mM HEPES): 190%
increase in r1 in response to Cu^+ ([5]; 25 mM NaHCO3 (extracellular) in 20 mM HEPES): 140%
turn-on response to Cu^+ ([5]; citrate (0.13 mM) in 20 mM HEPES, 1 equiv Cu^+): 220%
turn-on response to Cu^+ ([5]; lactate (2.3 mM) in 20 mM HEPES, 1 equiv Cu^+): 71%
increase in relaxivity in response to Cu^+ ([5]; phosphate buffered saline (PBS, 10 mM phosphate), pH 7.4, 1 equiv Cu^+): 350%
